ChEMBL document CHEMBL1150168, “Scabrolides A-D, four new norditerpenoids isolated from the soft coral Sinularia scabra” (2002)
Values after ≈ are worked out from the molar mass of the structure shown.

Columns and labels:
[1] = Cytotoxicity against human HEPA 59T/VGH cells by MTT assay; format: functional; conditions: read-out: ED50 (the source's name)
[2] = test system: KB; test: Cytotoxicity against human KB cells by MTT assay; format: functional; conditions: read-out: ED50 (the source's name)

| SMILES | EC50 [1] [µg/mL] | EC50 [2] [µg/mL] |
| --- | --- | --- |
| COc1cccc2c1C(=O)c1c(O)c3c(c(O)c1C2=O)C[C@@](O)(C(=O)CO)C[C@@H]3O[C@H]1C[C@H](N)[C@H](O)[C@H](C)O1 [DOXORUBICIN] | 0.3 (≈ 0.552 µM) | 0.3 (≈ 0.552 µM) |
| C=C(C)[C@@H]1CC(=O)[C@H]2[C@H](C1)[C@@H]1C(=O)O[C@@H]3C[C@@]4(C)O[C@@H]2C(=O)[C@@H]4[C@H]13 | > 20 | > 20 |
| C=C(C)[C@H]1C/C=C(\C(=O)OC)CC(=O)C[C@@]2(C)CC(=O)[C@@H](CC(=O)C1)O2 [NORCEMBRENE 5] | 17.5 (≈ 48.3 µM) | > 20 |
| C=C(C)[C@@H]1CC(=O)CC2=C(C1)[C@@H]1C(=O)O[C@@H]3C[C@](C)(O)[C@H](C2=O)[C@H]13 [SCABROLIDE A] | > 20 | > 20 |
| C=C(C)[C@H]1CC[C@]23O[C@H]2[C@@H](C[C@@]2(C)CC(=O)[C@H](CC(=O)C1)O2)OC3=O [SCABROLIDE D] | > 20 | > 20 |
| C=C(C)[C@H]1C/C=C2\C(=O)O[C@H](C[C@@]3(C)CC(=O)[C@@H](CC(=O)C1)O3)[C@@H]2O | 2.6 (≈ 7.46 µM) | 2.5 (≈ 7.18 µM) |
| C=C(C)[C@H]1C/C=C2\C(=O)O[C@H](C[C@@]3(C)CC(=O)[C@@H](CC(=O)C1)O3)[C@H]2O | 2.4 (≈ 6.89 µM) | 2.3 (≈ 6.6 µM) |
| C=C(C)[C@@H]1CC(=O)C[C@@H]2O[C@](C)(CC2=O)C[C@@H]2C=C(C(=O)O2)[C@@H](OC)C1 [SCABROLIDE C] | 17.8 (≈ 49.1 µM) | 11.9 (≈ 32.8 µM) |
